{"source": "patent US4576961A", "about": "“Antibiotic heterocyclic oxygen compounds and use” (priority 1980, dated 1986)", "key": {"microorganisms": {"system": "microorganisms", "assay": "anti-microbial effect", "type": "cell-based"}, "[1]": {"assay": "stability of PR-1381 in solution", "type": "physicochemical", "experimental": "Characteristic signals seen in an ^1 H-NMR-spectrum recorded immediately after dissolution of PR-1381 in deuterochloroform are listed in table E.\nWhen the solution in deuterochloroform is allowed to stand at room temperature, these initial signals gradually disappear while methanol is liberated from the molecule, and finally after 10 hours, a spectrum is observed which is identical with that obtained from PR-1350 complex in deuterochloroform, except for an extra signal at δ=3.48, probably due to methanol liberated during the transformation of PR-1381 to the PR-1350 complex."}}, "data": [{"smiles": "COC1(O)C(O)OC(CC2(C)C(C)CCC3(C)C(C=O)=CCCC32)C12CO2", "note": "(stereo not shown) [PR-1381]", "values": [{"measurement": "antibiotic activity", "setting": "microorganisms", "value": "antibiotically active"}, {"measurement": "anti-microbial effect compared with PR-1350 complex", "setting": "microorganisms; qualitatively and quantitatively", "value": "identical with that of the PR-1350 complex"}, {"measurement": "time after which spectrum is identical with that of PR-1350 complex", "setting": "[1]; deuterochloroform, room temperature", "value": 10, "unit": "h"}, {"measurement": "decomposition in solution", "setting": "[1]; in solution", "value": "decomposes to the PR-1350 complex with liberation of methanol"}]}]}
